Experimental data from patent US20250019385A1, “SPIROCYCLIC ANNULATED 2-AMINO-3-CYANO THIOPHENES AND DERIVATIVES FOR THE TREATMENT OF CANCER” (Boehringer Ingelheim International GmbH, priority 2023, published 2025).
≈ marks a conversion by molar mass, not a printed value.

Molecular target: KRAS (G12C)::SOS1 protein-protein interaction (Homo sapiens (Human), UniProt P01116, C118S/C51S/C80L/G12C)
Assay: KRAS::SOS1 AlphaScreen binding assay (KRAS G12C)
Details: GDP
From the text: (§1) This assay can be used to examine the potency with which compounds according to the invention binding to (mutated) KRAS inhibit the protein-protein interaction between SOS1 and (mutated) KRAS e.g. KRAS G12C, KRAS G12D. […] Low IC50 values in this assay setting are indicative of strong inhibition of protein-protein interaction between SOS1 and KRAS:
(§2) These assays measure the inhibitory effect of compounds on KRAS mutant protein-protein interactions using the Alpha Screen technology by Perkin Elmer.
(§3) The following (mutant) enzyme forms of KRAS and interacting proteins are used in these assays at the given concentrations:
KRAS (G12C) 1-169, N-terminal 6His-tag for purification, cleaved off, C-terminal avi-tag, biotinylated, mutations: C51S, C80L, C118S (in house); final assay concentration 7.5 nM and SOS1 564-1049, N-terminal 229 GST-tag, TEV cleavage site (Viva Biotech Ltd); final assay concentration 5 nM;
(§4) Test compounds dissolved in DMSO are dispensed onto assay plates (Proxiplate 384 PLUS, white, PerkinElmer; 6008289) using an Access Labcyte Workstation with the Labcyte Echo 55x. For the chosen highest assay concentration of 100 μM, 150 nL of compound solution are transferred from a 10 mM DMSO compound stock solution. A series of eleven fivefold dilutions per compound are transferred to the assay plate, compound dilutions are tested in duplicates. DMSO are added as backfill to a total volume of 150 nL.
(§5) The assays run on a fully automated robotic system in a darkened room below 100 Lux. To 150 nl of compound dilution 10 μl of a mix including KRAS mutant protein, SOS1 (final assay concentrations see above) and GDP nucleotide (Sigma G7127; final assay concentration 10 μM) in assay buffer (1×PBS, 0.1% BSA, 0.05% Tween 20) are added into columns 1-24.
(§6) After 30 minutes incubation time 5 μl of Alpha Screen bead mix in assay buffer are added into columns 1-23. Bead mix consists of AlphaLISA Glutathione Acceptor Beads (PerkinElmer, Cat No AL109) and AlphaScreen Streptavidin Donor Beads (PerkinElmer Cat No 6760002) in assay buffer at a final assay concentration of 10 μg/mL each.
(§7) Plates are kept at room temperature in a darkened incubator. After an additional 60 minutes incubation time the signal is measured in a PerkinElmer Envision HTS Multilabel Reader using the AlphaScreen specs from PerkinElmer.
(§8) Each plate contains up to 16 wells of a negative control depending on the dilution procedure (platewise or serial) (DMSO instead of test compound; with KRAS mutant::SOS1 GOP mix and bead mix; column 23) and 16 wells of a positive control (DMSO instead of test compound; with KRAS mutant::SOS1 GOP mix w/o bead mix; column 24).
(§9) As internal control known inhibitors of KRAS mutant::SOS1 interaction can be measured on each compound plate.
(§10) IC50 values are calculated and analyzed with Boehringer Ingelheim's MEGALAB C50 application using a 4 parametric logistic model.
(§11) Tables of example compounds disclosed herein contain IC50 values determined using the above assays (see Table 43).

Chain of KRAS (G12C)::SOS1 protein-protein interaction (P01116 other isoform, or with tags, fused parts or gaps G12C/C51S/C80L/C118S): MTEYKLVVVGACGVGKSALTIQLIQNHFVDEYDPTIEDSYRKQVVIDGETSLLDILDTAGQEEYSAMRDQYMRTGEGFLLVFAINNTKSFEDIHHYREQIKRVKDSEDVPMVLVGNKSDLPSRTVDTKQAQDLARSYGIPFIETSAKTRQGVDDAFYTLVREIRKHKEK

SMILES | IC50 [nM]
C[C@H](Oc1nc(-c2onc3c2CCC[C@@]32CCCc3sc(N)c(C#N)c32)nc2c1n(C)c(=O)n2[C@@H]1CCOC1)[C@@H]1CC[C@H](C)N1C [I-26] | 2
C[C@H](Oc1nc(-c2onc3c2CCC[C@@]32CCCc3sc(N)c(C#N)c32)nc2c1n(C)c(=O)n2[C@@H]1CC2CCC1O2)[C@@H]1CCCN1C (stereo partly shown) [I-18] | 4
C[C@H](Oc1nc(-c2noc3c2CCC[C@@]32CCCc3sc(N)c(C#N)c32)nc2c1CN(c1ncccn1)[C@@]21CCOC1)[C@@H]1CCCN1C [II-7b] | 3

The remaining lines, values ahead:

IC50 [nM] | SMILES
2 | CO[C@H]1CCN(C)[C@@H]1[C@H](C)Oc1nc(-c2noc3c2CCC[C@@]32CCCc3sc(N)c(C#N)c32)nc2c1n(C)c(=O)n2[C@@H]1CCCOC1 [II-3]
1 | C[C@H](Oc1nc(-c2noc3c2CCC[C@@]32CCCc3sc(N)c(C#N)c32)nc2c1n(C)c(=O)n2[C@@H]1CCOC1)[C@@H]1CCCN1C [II-2]

Molecular target: KRAS (G12D)::SOS1 protein-protein interaction (Homo sapiens (Human), UniProt P01116, G12D)
Sequence (P01116 other isoform, or with tags, fused parts or gaps G12D): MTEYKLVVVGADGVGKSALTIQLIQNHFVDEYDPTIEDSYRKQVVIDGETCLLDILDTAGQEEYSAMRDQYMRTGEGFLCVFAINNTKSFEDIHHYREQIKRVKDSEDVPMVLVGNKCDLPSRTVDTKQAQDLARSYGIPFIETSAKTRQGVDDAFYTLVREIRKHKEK
Assay: KRAS::SOS1 AlphaScreen binding assay (KRAS G12D)
Details: GDP
From the text: as §1, §2, §3
KRAS (G12D) 1-169, N-terminal 6His-tag, C-terminal avi-tag (Xtal BioStructures, Inc.); final assay concentration 10 nM and SOS1 564-1049, N-terminal 229 GST-tag, TEV cleavage site (Viva Biotech Ltd); final assay concentration 5 nM;
as §4, §5, §6, §7, §8, §9, §10, §11

SMILES | IC50 [nM]
C[C@H](Oc1nc(-c2onc3c2CCC[C@@]32CCCc3sc(N)c(C#N)c32)nc2c1n(C)c(=O)n2[C@@H]1CCOC1)[C@@H]1CC[C@H](C)N1C [I-26] | 1
C[C@H](Oc1nc(-c2onc3c2CCC[C@@]32CCCc3sc(N)c(C#N)c32)nc2c1n(C)c(=O)n2[C@@H]1CC2CCC1O2)[C@@H]1CCCN1C (stereo partly shown) [I-18] | 8
C[C@H](Oc1nc(-c2noc3c2CCC[C@@]32CCCc3sc(N)c(C#N)c32)nc2c1CN(c1ncccn1)[C@@]21CCOC1)[C@@H]1CCCN1C [II-7b] | 5

The next lines start with the values.

IC50 [nM] | SMILES
2 | CO[C@H]1CCN(C)[C@@H]1[C@H](C)Oc1nc(-c2noc3c2CCC[C@@]32CCCc3sc(N)c(C#N)c32)nc2c1n(C)c(=O)n2[C@@H]1CCCOC1 [II-3]
1 | C[C@H](Oc1nc(-c2noc3c2CCC[C@@]32CCCc3sc(N)c(C#N)c32)nc2c1n(C)c(=O)n2[C@@H]1CCOC1)[C@@H]1CCCN1C [II-2]

Test system: MKN1 cells
Assay: MKN1 CTG proliferation assay (120 h) (gastric cancer, wt amplified)
Format: cell-based
Details: Homo sapiens, MKN-1
Method: MKN1 cells (JCRB0252) are dispensed into black 384-well plates, flat and clear bottom (Greiner, PNr. 781091) at a density of 200 cells per well in 60 μl RPMI-1640 ATCC-Formulation (Gibco #A10491)+10% FCS (fetal calf serum, HyClone, SH30084.03). Cells are incubated overnight at 37° C. in a humidified tissue culture incubator at 5% CO2. Compounds (10 mM stock in DMSO) are added at logarithmic dose series using the ECHO acoustic liquid handler system (Beckman Coulter), normalizing for added DMSO and including DMSO controls. All compound treatments are performed in technical duplicates. For the TO time point measurement, untreated cells are analyzed at the time of compound addition. Plates are incubated for 120 h, and cell viability is measured using CellTiter-Glo luminescent cell viability reagent (Promega product code G7570). Viability (stated as percent of control) is defined as relative luminescence units RLU of each well divided by the RLU of cells in DMSO controls. IC50 values are determined from viability measurements by non-linear regression using a four-parameter model.
IC50 values of representative compounds according to the invention measured with these assays in the indicated cell lines are presented in Table 46.

SMILES | IC50 [nM]
C[C@H](Oc1nc(-c2onc3c2CCC[C@@]32CCCc3sc(N)c(C#N)c32)nc2c1n(C)c(=O)n2[C@@H]1CCOC1)[C@@H]1CC[C@H](C)N1C [I-26] | 24
C[C@H](Oc1nc(-c2onc3c2CCC[C@@]32CCCc3sc(N)c(C#N)c32)nc2c1n(C)c(=O)n2[C@@H]1CC2CCC1O2)[C@@H]1CCCN1C (stereo partly shown) [I-18] | 457
C[C@H](Oc1nc(-c2noc3c2CCC[C@@]32CCCc3sc(N)c(C#N)c32)nc2c1CN(c1ncccn1)[C@@]21CCOC1)[C@@H]1CCCN1C [II-7b] | 635

Continued, values first:

IC50 [nM] | SMILES
14 | CO[C@H]1CCN(C)[C@@H]1[C@H](C)Oc1nc(-c2noc3c2CCC[C@@]32CCCc3sc(N)c(C#N)c32)nc2c1n(C)c(=O)n2[C@@H]1CCCOC1 [II-3]
4 | C[C@H](Oc1nc(-c2noc3c2CCC[C@@]32CCCc3sc(N)c(C#N)c32)nc2c1n(C)c(=O)n2[C@@H]1CCOC1)[C@@H]1CCCN1C [II-2]

Test system: not listed separately
Assay: Solubility measurement (DMSO solution precipitation method)
Format: physicochemical
Details: aqueous buffer, kinetic from dmso stock, McIlvaine buffer pH 4.5, 24 h, read-out: solubility pH 4.5
Method: A 10 mM DMSO stock solution of a test compound is used to determine its aq. solubility. The DMSO solution is diluted with an aq. medium (McIlvaine buffer with pH=4.5 or 6.8) to a final concentration of 250 μM. After 24 h of shaking at ambient temperature a potentially formed precipitate is removed by filtration. The concentration of the test compound in the filtrate is determined by LC-UV methods by calibrating the signal to the signal of a reference solution with complete dissolution of the test compound in acetonitrile/water (1:1) with known concentration.

SMILES | solubility at 24 h [mg/mL]
C[C@H](Oc1nc(-c2onc3c2CCC[C@@]32CCCc3sc(N)c(C#N)c32)nc2c1n(C)c(=O)n2[C@@H]1CCOC1)[C@@H]1CC[C@H](C)N1C [I-26] | > 0.158
C[C@H](Oc1nc(-c2onc3c2CCC[C@@]32CCCc3sc(N)c(C#N)c32)nc2c1n(C)c(=O)n2[C@@H]1CC2CCC1O2)[C@@H]1CCCN1C (stereo partly shown) [I-18] | > 0.151
C[C@H](Oc1nc(-c2noc3c2CCC[C@@]32CCCc3sc(N)c(C#N)c32)nc2c1CN(c1ncccn1)[C@@]21CCOC1)[C@@H]1CCCN1C [II-7b] | 0.062 (≈ 93.1 µM)

More lines, now with the values ahead:

solubility at 24 h [mg/mL] | SMILES
> 0.151 | CO[C@H]1CCN(C)[C@@H]1[C@H](C)Oc1nc(-c2noc3c2CCC[C@@]32CCCc3sc(N)c(C#N)c32)nc2c1n(C)c(=O)n2[C@@H]1CCCOC1 [II-3]
> 0.154 | C[C@H](Oc1nc(-c2noc3c2CCC[C@@]32CCCc3sc(N)c(C#N)c32)nc2c1n(C)c(=O)n2[C@@H]1CCOC1)[C@@H]1CCCN1C [II-2]

Same assay, conditions: aqueous buffer, kinetic from dmso stock, McIlvaine buffer pH 6.8, 24 h, read-out: solubility pH 6.8

SMILES | solubility at 24 h [mg/mL]
C[C@H](Oc1nc(-c2onc3c2CCC[C@@]32CCCc3sc(N)c(C#N)c32)nc2c1n(C)c(=O)n2[C@@H]1CCOC1)[C@@H]1CC[C@H](C)N1C [I-26] | 0.127 (≈ 197 µM)
C[C@H](Oc1nc(-c2onc3c2CCC[C@@]32CCCc3sc(N)c(C#N)c32)nc2c1n(C)c(=O)n2[C@@H]1CC2CCC1O2)[C@@H]1CCCN1C (stereo partly shown) [I-18] | 0.097 (≈ 148 µM)
C[C@H](Oc1nc(-c2noc3c2CCC[C@@]32CCCc3sc(N)c(C#N)c32)nc2c1CN(c1ncccn1)[C@@]21CCOC1)[C@@H]1CCCN1C [II-7b] | 0.023 (≈ 34.5 µM)

Second part, the compound after the results:

solubility at 24 h [mg/mL] | SMILES
0.011 (≈ 16.3 µM) | CO[C@H]1CCN(C)[C@@H]1[C@H](C)Oc1nc(-c2noc3c2CCC[C@@]32CCCc3sc(N)c(C#N)c32)nc2c1n(C)c(=O)n2[C@@H]1CCCOC1 [II-3]
> 0.153 | C[C@H](Oc1nc(-c2noc3c2CCC[C@@]32CCCc3sc(N)c(C#N)c32)nc2c1n(C)c(=O)n2[C@@H]1CCOC1)[C@@H]1CCCN1C [II-2]
